Test results taken from ChEMBL document CHEMBL1144078, “Activity-guided isolation of triterpenoid acyl CoA cholesteryl acyl transferase (ACAT) inhibitors from Ilex kudincha” (J Nat Prod, 1999).

biological target: T1, Sterol O-acyltransferase 1 (Rattus norvegicus, UniProt O70536); assay: Inhibition of rat liver microsomal ACAT
T1 sequence (O70536 whole entry): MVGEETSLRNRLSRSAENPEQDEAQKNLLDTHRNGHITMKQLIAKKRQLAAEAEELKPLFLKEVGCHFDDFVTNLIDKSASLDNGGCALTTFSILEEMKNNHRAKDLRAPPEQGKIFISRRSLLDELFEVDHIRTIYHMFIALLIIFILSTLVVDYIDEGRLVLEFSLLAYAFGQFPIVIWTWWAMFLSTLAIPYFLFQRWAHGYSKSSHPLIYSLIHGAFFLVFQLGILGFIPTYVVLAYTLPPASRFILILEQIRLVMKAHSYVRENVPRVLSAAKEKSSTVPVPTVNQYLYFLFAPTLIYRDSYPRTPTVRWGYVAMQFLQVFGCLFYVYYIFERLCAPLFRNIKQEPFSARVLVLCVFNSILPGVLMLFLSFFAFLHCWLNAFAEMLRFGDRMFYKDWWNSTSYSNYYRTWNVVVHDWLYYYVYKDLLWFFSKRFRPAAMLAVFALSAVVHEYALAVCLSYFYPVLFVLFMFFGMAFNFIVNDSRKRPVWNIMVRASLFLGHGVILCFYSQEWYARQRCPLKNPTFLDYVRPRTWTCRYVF

| SMILES | IC50 [µM] |
| --- | --- |
| C[C@H]1[C@H](C)CC[C@]2(C(=O)O)CC[C@]3(COC(=O)/C=C/c4ccc(O)cc4)C(=CC[C@@H]4[C@@]5(C)CC[C@H](O)C(C)(C)[C@@H]5CC[C@]43C)[C@H]12 | 73 |
| C[C@H]1[C@H](C)CC[C@]2(C(=O)O)CC[C@]3(COC(=O)/C=C\c4ccc(O)cc4)C(=CC[C@@H]4[C@@]5(C)CC[C@H](O)[C@@](C)(CO)[C@@H]5CC[C@]43C)[C@H]12 | 194 |
| C[C@H]1[C@H](C)CC[C@]2(C(=O)O)CC[C@]3(C)C(=CC[C@@H]4[C@@]5(C)CC[C@H](O)[C@@](C)(CO)[C@@H]5CC[C@]43C)[C@H]12 | 64 |
| C=C1[C@@H](O)[C@H](O)C[C@]2(C)[C@H]3C=C[C@]45OC(=O)[C@@]6(CC[C@@H](C)[C@H](C)[C@H]64)CC[C@@]5(C)[C@]3(C)CC[C@@H]12 [ILEKUDINOL A] | 154 |
| C=C1[C@@H](O)[C@H](O)C[C@]2(C)[C@H]3CC=C4[C@@H]5[C@@H](C)[C@H](C)CC[C@]5(C(=O)O)CC[C@@]4(C)[C@]3(C)CC[C@@H]12 [ILEKUDINOL B] | 44 |
| C=C(C)[C@@H]1CC[C@]2(CO)CC[C@]3(C)[C@H](CC[C@@H]4[C@@]5(C)CC[C@H](O)[C@](C)(CO)[C@@H]5CC[C@]43C)[C@@H]12 [ILEKUDINOL C] | 328 |
| C=C1[C@@H](O)[C@H](O)C[C@]2(C)[C@H]3[C@@H]4O[C@@H]4[C@]45OC(=O)[C@@]6(CC[C@@H](C)[C@H](C)[C@H]64)CC[C@@]5(C)[C@]3(C)CC[C@@H]12 [ULMOIDOL] | 468 |
